Measured values from patent publication US5534515A, “Pyrrolopyridazines having gastrointestinal protective effects” (BYK Gulden Lomberg Chemische Fabrik GmbH, priority 1991, dated 1996).

Test system: acid secretion of the perfused rat stomach stimulated by pentagastrin
Assay: Investigation of the secretion-inhibiting effect on the perfused rat stomach
Type: in vivo, rat (CD rats, female)
Settings: for Maximum inhibition of acid secretion: N = 3, vs untreated control group, pentagastrin stimulation
Excerpt: The effect of the compounds according to the invention after intravenous administration on the acid secretion of the perfused rat stomach stimulated by pentagastrin in vivo is shown in the following Table 2.
The abdomen of anesthesized rats (CD rats, female, 200-250 g; 1.5 g/kg i.m. of urethane) was opened after tracheotomy by a median upper abdominal incision and a PVC catheter was fixed transorally in the esophagus and a further one via the pylorus in such a way that the ends of the tubes just projected into the stomach lumen. The catheter leading from the pylorus led outwards via a side opening in the right-hand abdominal wall.
After thorough irrigation (about 50-100 ml), a flow of warm physiological NaCl solution at 37° C. was continuously passed through the stomach (0.5 ml/min, pH 6.8-6.9; Brun-Unita I). The pH (pH meter 632, glass electrode EA 147; .phi.=5 mm, Metrohm) was determined in the effluent collected (25 ml measuring cylinder) at 15 min intervals in each case and the secreted HCl by titration with a freshly prepared 0.01 N NaOH solution to pH 7 (Dosimat 655 Metrohm).
The stimulation of gastric secretion was effected by continuous infusion of 1 μg/kg (=1.65 ml/h) i.v. of pentagastrin (left femoral vein) about 30 min after the end of the operation (i.e. after determination of 2 preliminary fractions). The substances to be tested were administered intravenously (left jugular vein) in a 1 ml/kg liquid volume 60 min after the start of continuous pentagastrin infusion.
The body temperature of the animals was kept at a constant 37.8°-38° C. by infrared irradiation and heating pads (automatic, stepless control via rectal temperature sensor).
The maximum decrease in acid secretion (15 min fractions) of each treated group compared to that of the untreated control group (=100%) was used as a measure of the secretion-inhibiting effect.

## Cc1c(CO)c2cnnc(OCc3ccc(F)cc3)c2n1Cc1ccccc1 [Example 1a, 1-Benzyl-7-(4-fluorobenzyloxy)-3-hydroxymethyl-2-methylpyrrolo[2,3-d]pyridazine]
Rattus norvegicus, iv, dose (interpolated) which causes a maximum inhibition of HCl secretion by 50%, read-out: approx. ED50
  ED50: ~1.1 µmol/kg
Dose 0.3 μmol/kg i.v.
  Maximum inhibition of acid secretion: 22%
Dose 1.0 μmol/kg i.v.
  Maximum inhibition of acid secretion: 52%
Dose 3.0 μmol/kg i.v.
  Maximum inhibition of acid secretion: 70%
Dose 10.0 μmol/kg i.v.
  Maximum inhibition of acid secretion: 94%
